Experimental findings from ChEMBL document CHEMBL4387717, “Structure guided drug design to develop kallikrein 5 inhibitors to treat Netherton syndrome” (Bioorg Med Chem Lett, 2019) are described below.

Each structure is given as a SMILES string.

Data set [1] has as its system Keratinocyte. The experiment in a line: Induction of irritation in human epidermal keratinocytes assessed as effect on cell viability over 24 hrs. The class given is cell-based.
Data set [2] addresses T1, Kallikrein-14 (Homo sapiens, UniProt Q9P0G3).
T1 sequence (Q9P0G3 whole entry): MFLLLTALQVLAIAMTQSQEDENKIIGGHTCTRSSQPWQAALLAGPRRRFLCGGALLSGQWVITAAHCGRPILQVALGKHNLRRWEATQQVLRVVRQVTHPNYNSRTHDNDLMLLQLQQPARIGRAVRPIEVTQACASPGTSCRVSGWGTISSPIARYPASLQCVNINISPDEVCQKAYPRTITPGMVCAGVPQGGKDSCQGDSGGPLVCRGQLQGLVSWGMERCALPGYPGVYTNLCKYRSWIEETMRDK
The experiment in a line: Inhibition of recombinant C-terminal 10His-tagged human KLK14 (Gln19 to Met248 residues) expressed in mouse NS0 cells using BOC-VPR-AMC as substrate after 40 mins by fluorescence intensity assay.

The species named for data set [3] is Homo sapiens. The experiment in a line: Selectivity index, ratio of compound effect for inhibition of human neutrophil elastase to compound effect for inhibition of recombinant 6His-Q-FLAG tagged human KLK5 expressed in baculovirus infected insect Sf9 cells.
The species named for data set [4] is Homo sapiens. The experiment in a line: Selectivity index, ratio of compound effect for inhibition of recombinant human N-terminal met-His6-tagged matriptase catalytic domain (Gly596 to Val855 residues) expressed in Escherichia coli to compound effect for inhibition of recombinant 6His-Q-FLAG tagged human KLK5 expressed in baculovirus infected insect Sf9 cells.

Data set [5] addresses T2, Kallikrein-8 (Homo sapiens, UniProt O60259).
T2 sequence (O60259 whole entry): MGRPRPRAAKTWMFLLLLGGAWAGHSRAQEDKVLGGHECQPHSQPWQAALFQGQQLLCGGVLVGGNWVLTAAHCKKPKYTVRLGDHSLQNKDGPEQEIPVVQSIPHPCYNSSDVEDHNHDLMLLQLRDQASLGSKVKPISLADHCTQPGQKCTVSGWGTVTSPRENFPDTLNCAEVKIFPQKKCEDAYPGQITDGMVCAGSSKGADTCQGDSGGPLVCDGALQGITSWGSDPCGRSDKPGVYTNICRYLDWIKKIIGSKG
The experiment in a line: Inhibition of recombinant C-terminal 10-His tagged human KLK8 (Gln29 to Gly260 residues) expressed in mouse NS0 cells using BOC-VPR-AMC as substrate after 40 mins by fluorescence intensity assay.

A short description of data set [6]: Absorption property in methanol assessed as maximum absorption wavelength by UV-spectra analysis. Format: physicochemical.
The species named for data set [7] is Homo sapiens. The experiment in a line: Selectivity index, ratio of compound effect for inhibition of recombinant C-terminal 6-His tagged human KLKB1 (Gly20 to Ala638 residues) expressed in mouse NS0 cells to compound effect for inhibition of recombinant 6His-Q-FLAG tagged human KLK5 expressed in baculovirus infected insect Sf9 cells.
Data set [8] concerns the target Kallikrein-1 (Homo sapiens, UniProt P06870). The experiment in a line: Inhibition of recombinant bovine enterokinase activated N-terminal His-tagged recombinant human KLK1 (19 to 262 residues) expressed in baculovirus infected Sf9 insect cells using 3',6'-bis(prolylphenylalanylarginylamino)3H-spiro(2-benzofuran-1,9'-xanthen)-3-one;TFA as substrate measured at 30 secs interval for 5 mins by fluorescence intensity assay.

Data set [9] is described as follows: Absorption property in methanol assessed as molar extinction co-efficient by UV-spectra analysis. The class given is physicochemical.
For data set [10], the species on record is Homo sapiens. The experiment in a line: Selectivity index, ratio of compound effect for inhibition of recombinant C-terminal 10-His tagged human KLK14 (Gln19 to Met248 residues) expressed in mouse NS0 cells to compound effect for inhibition of recombinant 6His-Q-FLAG tagged human KLK5 expressed in baculovirus infected insect Sf9 cells.
Data set [11] is described as follows: Half life in pH 8 buffer at 0.05 mg/ml under H2O2-induced oxidative condition over 24 hrs. The settings on record: buffer with H2O2, pH 8. The class given is physicochemical.
In data set [12] the target is T3, Kallikrein-5 (Homo sapiens, UniProt Q9Y337).
T3 sequence (Q9Y337 whole entry): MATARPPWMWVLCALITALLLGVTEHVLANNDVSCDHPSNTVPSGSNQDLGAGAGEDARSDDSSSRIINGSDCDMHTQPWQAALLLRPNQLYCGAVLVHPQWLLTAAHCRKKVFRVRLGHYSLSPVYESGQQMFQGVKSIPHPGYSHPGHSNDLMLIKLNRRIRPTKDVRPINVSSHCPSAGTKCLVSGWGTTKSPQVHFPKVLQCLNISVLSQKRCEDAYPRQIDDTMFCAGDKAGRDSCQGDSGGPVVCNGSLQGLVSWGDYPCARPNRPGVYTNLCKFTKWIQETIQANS
The experiment in a line: Inhibition of recombinant 6His-Q-FLAG tagged human KLK5 expressed in baculovirus infected Sf9 insect cells using (Tos-Gly-Pro-Arg)2[R110].2TFA as substrate measured at 30 secs interval for 5 mins by fluorescence intensity assay. The settings on record: read-out: pIC50 (converted).

Kallikrein-1, sequence (P06870 whole entry, the tested form may be a part): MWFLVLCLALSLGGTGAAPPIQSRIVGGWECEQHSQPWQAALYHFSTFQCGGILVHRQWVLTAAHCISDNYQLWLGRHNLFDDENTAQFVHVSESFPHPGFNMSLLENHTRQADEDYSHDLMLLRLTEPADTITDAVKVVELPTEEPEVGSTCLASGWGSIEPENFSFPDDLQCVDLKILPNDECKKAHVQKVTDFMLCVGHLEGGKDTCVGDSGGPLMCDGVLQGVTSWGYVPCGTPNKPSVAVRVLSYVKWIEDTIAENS

For orientation: half-life means the time needed for the level to fall by half in the phase considered. A low value points to fast loss. Regarding `N=C(N)c1ccc(NCc2nc(-c3ccccc3)c[nH]2)cc1OCc1cccnc1`, the Activity result in [1] is recorded as “Non-Toxic”; in data set [6] it was above 290 nm; in [9], above 1000 a.u.L/mol.cm. Further, the IC50 was 3.98 µM in [2], 794 nM in data set [5], 63.1 µM in [8] and 79.4 nM in data set [12]. Besides, the Selectivity Index in [3], in data set [4], in [7] and in [10] was above 100 throughout. Moreover, the half-life at 0.05 mg/ml in data set [11] was 606 min.
